Reference: EP0516082A2, “Gingerol and gingerdiol derivatives as hypocholesterolemic and antiatherosclerotic agents” (priority 1991, dated 1992)

Columns and labels:
plasma = assay: Inhibition of plasma lipid peroxidation (cupric sulfate induced, thiobarbituric acid assay, method of Yagi et al.); type: biochemical; conditions: 0.1 mL of plasma, cupric sulfate 2 mM, 37°C for 2.5 hours or 18 hours; for IC50: read-out: Plas.Lipid Perox. IC₅₀; for Plas.Lipid Perox. ID₅₀: dose required to inhibit 50% of plasma lipid peroxidation
Method: (§1) Determine the degree of inhibition of LDL and plasma lipid peroxidation by [8]-gingerol and anti-[8]-gingerdiol by the method of Yagi et al. [Vitamins 39, 105 (1968)].
(§2) Incubate a 0.5 mL solution containing 250 micrograms (µg) of LDL or 0.1 mL of plasma with the test compound, in amounts varying from 0 to 250 µg, for 30 minutes at 24°C. To this mixture add 10 µL of a cupric sulfate solution (final concentration 18 µM in LDL assay, 2 mM in plasma assay) and incubate at 37°C for 2.5 hours or 18 hours. Determine the amount of peroxidation of LDL or plasma by the thiobarbituric acid assay. Calculate the dose of test compound required to inhibit 50% of LDL or plasma lipid peroxidation (ID₅₀) and the concentration of test compound required to inhibit 50% of LDL or plasma lipid peroxidation (IC₅₀).

LDL = assay: Inhibition of LDL lipid peroxidation (cupric sulfate induced, thiobarbituric acid assay, method of Yagi et al.); type: biochemical; conditions: 250 µg LDL in 0.5 mL, cupric sulfate 18 µM, 37°C for 2.5 hours or 18 hours; for IC50: read-out: LDL Perox. IC₅₀; for LDL Perox. ID₅₀: dose required to inhibit 50% of LDL peroxidation
Method: as §1, §2

aortas = assay: Antiatherogenic effect in the cholesterol-fed rabbit (Sudan IV stained aortic lesions); type: in vivo; conditions: rabbits fed 1% cholesterol chow with 0.5% (w/w) compound for 56 days, n=5
Excerpt: Feed rabbits with 1% cholesterol (w/w) in standard rabbit chow supplemented with (n=5) or without (n=6) 0.5% anti-[8]-gingerdiol (w/w) for 56 days. Each rabbit consumes 120 grams of food per day. Immediately following sacrifice by intravenous injection of sodium pentobarbital, dissect the aortas from the ascending arch to the […] bifurcation.
Remove extraneous adipose tissue, open the aortas longitudinally and rinse several times with saline. Stain the aortas with Sudan IV and photograph using the method described by Mao et al. [J.Med.Chem. 34, 302 (1991)]. Digitize the areas of sudanophilic lesions in the thoracic region of the aorta with a Magiscan image analysis system. Distinguish stained versus unstained areas on the basis of Sudan Red staining. Quantitate the corresponding lesioned and unlesioned areas accordingly.

[1] = Effect on serum cholesterol in the cholesterol-fed rabbit; type: in vivo
Excerpt: Feed rabbits with 1% cholesterol (w/w) in standard rabbit chow supplemented with (n=5) or without (n=8) 0.5% anti-[8]-gingerdiol (w/w). Each rabbit consumes 120 grams of food per day. Collect blood samples and determine cholesterol in freshly prepared serum using an enzymatic method described by Mao et al., Clin.Chem 29, 1890 (1983).

| Structure (SMILES) | IC50 (plasma) [µM] | Plas.Lipid Perox. ID₅₀ (plasma) [nmol] | IC50 (LDL) [µM] | LDL Perox. ID₅₀ (LDL) [nmol] | % Lesions (±SEM) in Abdominal (aortas; abdominal aorta, control 28 ± 7) [%] | % Lesions (±SEM) in Arch (aortas; aortic arch, control 83 ± 7) [%] | % Lesions (±SEM) in Thoracic (aortas; thoracic aorta, control 62 ± 8) [%] | Cholesterol (mg/dL±SEM) Day 0 ([1]; Day 0 (baseline), rabbits fed 1% cholesterol chow with 0.5% (w/w) compound, n=5) [mg/dL] | Cholesterol (mg/dL±SEM) Day 10 ([1]; Day 10, rabbits fed 1% cholesterol chow with 0.5% (w/w) compound, n=5, control 790 ± 103) [mg/dL] | Cholesterol (mg/dL±SEM) Day 28 ([1]; Day 28, rabbits fed 1% cholesterol chow with 0.5% (w/w) compound, n=5, control 2177 ± 97) [mg/dL] |
| --- | --- | --- | --- | --- | --- | --- | --- | --- | --- | --- |
| CCCCCCCC(O)CC(=O)CCc1ccc(O)c(OC)c1 (centres unmarked) [[8]-Gingerol, 1-(4'-Hydroxy-3'-methoxyphenyl)-5-hydroxy-3-dodecanone] | 8.3 | 5 | 109 | 60 |  |  |  |  |  |  |
| CCCCCCCC(O)CC(O)CCc1ccc(O)c(OC)c1 (stereo not drawn) [anti-[8]-Gingerdiol, Anti-1-(4'-hydroxy-3'-methoxyphenyl)-3,5-dodecanediol] | 16.6 | 10 | 72 | 40 | 24 ± 10 | 73 ± 12 | 38 ± 16 | 82 ± 12 | 515 ± 154 | 1615 ± 216 |
